The term IC50 denotes the point on the concentration scale where inhibition reaches its midpoint. Read a low IC50 as greater potency.

We go through 4 compounds from patent EP0414903A1, “NEW THIOPROLINE DERIVATIVE” (priority 1988, dated 1990).

Non-standard residues stand in square brackets, D forms with d. Residues, ends and D or L forms follow the SMILES beside them. *: point of attachment. Thz = O=C(O)[C@@H]1CSCN1; Cbz = O=C(OCc1ccccc1)*

Test [1] has as its system scopolamine-induced amnesia. Nature of the test: Step-down passive avoidance test (anti-amnestic activity, scopolamine-induced amnesia). Type of test: in vivo, rats. The settings on record: scopolamine 0.5 mg/kg i.p., relative to scopolamine-treated group, retention trial 24 hours after acquisition. From the text: A step-down passive avoidance test on rats was used as the method of assay for anti-amnestic activity to estimate the preventive effect of prolylendopeptidase inhibitors on scopolamine-induced amnesia. This method of assay involved application of electric shocks to animals upon their stepping down on a grid floor to see whether they have learned that such shocks can be avoided by staying on a platform. A passive avoidance test chamber used in this experiment was comprised of an electrifiable grid floor (20 cm in length and 22 cm in width) and a platform (20 cm in length, 15 cm in width and 5 cm in height) placed at the right back corner thereof.
5-Weeks-old male rats of Wister strain weighing 100-150 g (purchased from Japan Clea Laboratory) were used in the test.
Each test compound used in the doses indicated in Tables 1 - 4 was dissolved or suspended in 4% gum arabic-containing distilled water (1.0 ml) and administered p.o. one hour before the commencement of acquisition trial. In addition, scopolamine hydrobromide dissolved in saline (0.5 ml) was intraperitoneally administered in a dose of 0.5 mg/kg 30 minutes before the acquisition trial to prepare experimental animal models of amnesia.
In the acquisition trial, the rat was placed on the platform in the test chamber and, when the animal stepped down on the grid floor, the electric current of 5.0 mA was immediately sent to the grid floor continuously until the animal went up on the platform. If the rat having gone up on the platform stayed there for more than 30 seconds, the animal was regarded to have learned the situation and taken out of the test chamber. A total time of measurement in the acquisition trial was limited to 300 seconds as maximum, and the time elapsing until the rat learned the situation was measured. In order to avoid any significant difference in the rats, those which took more than 300 seconds for the learning were excluded from the experiment.
The retention trial was carried out 24 hours after the acquisition trial. In this trial, the rat was placed again on the platform in the test chamber, the time elapsing until the animal stepped down onto the grid floor (the step-down latency) was measured.
In each of these tables they are indicated as relative step-down latency, shown by each test compound-treated group in the retention trial, to step-down latency for scopolamine-treated group (i.e. test compound-treated group's step-down latency/scopolamine-treated group's step-down latency).

In a further test the target is T1, bovine brain PEP (Bos taurus, UniProt Q9XTA2).
T1 construct: from tissue; host or cells: bovine brain
T1 sequence (Q9XTA2 1-710): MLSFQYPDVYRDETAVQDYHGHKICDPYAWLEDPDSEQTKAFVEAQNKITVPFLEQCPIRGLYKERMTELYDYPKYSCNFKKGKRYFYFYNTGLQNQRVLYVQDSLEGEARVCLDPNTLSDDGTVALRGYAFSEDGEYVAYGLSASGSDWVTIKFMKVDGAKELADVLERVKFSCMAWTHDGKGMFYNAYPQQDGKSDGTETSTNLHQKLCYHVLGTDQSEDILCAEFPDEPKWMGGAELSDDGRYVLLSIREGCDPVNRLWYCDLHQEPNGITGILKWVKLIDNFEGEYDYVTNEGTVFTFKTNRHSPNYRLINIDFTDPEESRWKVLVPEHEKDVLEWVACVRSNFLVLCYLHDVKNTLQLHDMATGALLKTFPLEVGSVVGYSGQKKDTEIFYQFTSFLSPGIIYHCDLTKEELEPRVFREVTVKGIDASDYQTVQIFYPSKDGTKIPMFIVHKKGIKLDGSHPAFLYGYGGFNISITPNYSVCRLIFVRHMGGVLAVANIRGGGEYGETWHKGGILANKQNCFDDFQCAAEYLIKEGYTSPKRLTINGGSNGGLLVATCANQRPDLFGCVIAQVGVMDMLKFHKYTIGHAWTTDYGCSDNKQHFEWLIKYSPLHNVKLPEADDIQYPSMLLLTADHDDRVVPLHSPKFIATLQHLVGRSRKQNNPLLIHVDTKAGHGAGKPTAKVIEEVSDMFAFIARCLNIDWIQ
In words: Inhibitory activity against proline endopeptidase (PEP), substrate Z-Gly-Pro-β-NA. Type of test: biochemical. As to conditions: pH 7.0, 37°C. The method, then:
The thioproline derivatives of the general formula (I) shown above as test compound were assayed for inhibitory activity against bovine brain PEP by the following test procedure using as substrate N-benzyloxycarbonyl-glycyl-proline-β-naphthylamide (Z-Gly-Pro-β-NA).
100 µl of PEP (about 0.14 U/ml) and 100µl of one of test compound solutions adjusted to different concentrations (0, 10⁻⁹ - 10⁻⁴M) were added to 0.7 ml of 20 mM Tris-HCl buffer (pH = 7.0) containing 10 mM EDTA and 10 mM 2-mercaptoethanol, and the mixture was preincubated at 37°C for 5 minutes. […] The reaction was […] using 25% trichloroacetic acid, and the reaction mixture was centrifuged at 3,000 r.p.m. for 10 minutes. To 0.5 ml of the supernatent was added 0.5 ml of 0.1% nitrous acid, and after 3 minutes 0.05% solution of N-(l-naphthyl)etnylenediamine dihydrochloride in ethanol was added thereto. The mixture was allowed to stand at 37°C for 25 minutes and then the absorbance at 570 nm was measured.
Enzyme Activity Unit = ΔOD x 0.42 x Dilution ratio (µmol/min/ml)

Take `COC(OC)[C@@H]1CSCN1C(=O)[C@@H]1CSCN1C(=O)OCc1ccccc1` [Example 1, Benzyloxycarbonyl-L-thioprolyl-L-thioprolinal dimethyl acetal]: the “Relative step-down latency in retention trial (mean±S.E.)” value (shortened to “Relative step-down latency”) in test [1] (Table 2, dose 0.008 mg/kg p.o.) is 0.9±0.1; in test [1] (Table 2, dose 0.04 mg/kg p.o.), 2.4±1.1; in test [1] (Table 2, dose 0.2 mg/kg p.o.), 2.5±1.5; in test [1] (Table 2, dose 1 mg/kg p.o.) it was 1.4±0.3; in test [1] (Table 2, dose 5 mg/kg p.o.), 1.1±0.4; in test [1] (Table 2, dose 25 mg/kg p.o.) it was 1.6±0.6. The compound also displayed an IC50 against bovine brain PEP of 10 µM.
Consider `CCOC(OCC)[C@@H]1CSCN1C(=O)[C@@H]1CSCN1C(=O)OCc1ccccc1` [Example 2, Benzyloxycarbonyl-L-thioprolyl-L-thioprolinal diethyl acetal], for which the “Relative step-down latency” value in test [1] (Table 2, dose 0.008 mg/kg p.o.) is reported as 1.5±0.6; in test [1] (Table 2, dose 0.04 mg/kg p.o.), 2.7±1.4; in test [1] (Table 2, dose 0.2 mg/kg p.o.), 1.7±0.9; in test [1] (Table 2, dose 1 mg/kg p.o.) it was 2.3±1.2; in test [1] (Table 2, dose 5 mg/kg p.o.), 1.5±0.6; in test [1] (Table 2, dose 25 mg/kg p.o.), 1.3±0.7. The compound also gave an IC50 against bovine brain PEP of 250 µM.
Regarding `O=C[C@@H]1CSCN1C(=O)[C@@H]1CSCN1C(=O)OCc1ccccc1` [ZTT, Benzyloxycarbonyl-L-thioprolyl-L-thioprolinal, reference compound] (Cbz-[Thz]-[Thz]-aldehyde), the “Relative step-down latency” value in test [1] (Table 2, dose 0.008 mg/kg p.o.) amounted to 1.0±0.3; in test [1] (Table 2, dose 0.04 mg/kg p.o.) it was 3.0±1.2; in test [1] (Table 2, dose 0.2 mg/kg p.o.) it was 2.6±0.9; in test [1] (Table 2, dose 1 mg/kg p.o.) it was 1.6±0.8; in test [1] (Table 2, dose 5 mg/kg p.o.) it was 1.0±0.2; in test [1] (Table 2, dose 25 mg/kg p.o.) it was 1.4±0.9.
As to `COc1ccc(C(=O)N2CCCC2=O)cc1` [aniracetam, reference compound], the “Relative step-down latency” value in test [1] (Table 3, dose 12.5 mg/kg p.o.) came out at 1.1±0.4; in test [1] (Table 3, dose 25 mg/kg p.o.) it was 1.6±0.6; in test [1] (Table 3, dose 50 mg/kg p.o.), 2.3±0.6; in test [1] (Table 3, dose 100 mg/kg p.o.), 0.7±0.3.
